The source of these data is paper PMC8131363 (Scientific Reports, 2021).

Read-outs that look alike come from different tables or passages of the source. Starred links: 1 amine or outer side, 2 acyl side, 3 side chain; linkers in the order of their positions; H or OH if unused. Non-standard residues stand in square brackets, D forms with d. No end group written: not given here. γGlu = O=C(O)[C@H](CCC(=O)[*:2])N[*:1]; βAsp = O=C(O)[C@H](CC(=O)[*:2])N[*:1]

The target of assay [1] is domestic cat Calcium Sensing Receptor (cCaSR) (Felis catus).
The next assay concerns the target T1, hCaSR (Homo sapiens, UniProt P41180).
T1 construct: expressed in transfected cells; host or cells: HEK293/natClytin (transient, pcDNA6 as delivered by GeneArt)
T1 sequence (P41180 20-1078): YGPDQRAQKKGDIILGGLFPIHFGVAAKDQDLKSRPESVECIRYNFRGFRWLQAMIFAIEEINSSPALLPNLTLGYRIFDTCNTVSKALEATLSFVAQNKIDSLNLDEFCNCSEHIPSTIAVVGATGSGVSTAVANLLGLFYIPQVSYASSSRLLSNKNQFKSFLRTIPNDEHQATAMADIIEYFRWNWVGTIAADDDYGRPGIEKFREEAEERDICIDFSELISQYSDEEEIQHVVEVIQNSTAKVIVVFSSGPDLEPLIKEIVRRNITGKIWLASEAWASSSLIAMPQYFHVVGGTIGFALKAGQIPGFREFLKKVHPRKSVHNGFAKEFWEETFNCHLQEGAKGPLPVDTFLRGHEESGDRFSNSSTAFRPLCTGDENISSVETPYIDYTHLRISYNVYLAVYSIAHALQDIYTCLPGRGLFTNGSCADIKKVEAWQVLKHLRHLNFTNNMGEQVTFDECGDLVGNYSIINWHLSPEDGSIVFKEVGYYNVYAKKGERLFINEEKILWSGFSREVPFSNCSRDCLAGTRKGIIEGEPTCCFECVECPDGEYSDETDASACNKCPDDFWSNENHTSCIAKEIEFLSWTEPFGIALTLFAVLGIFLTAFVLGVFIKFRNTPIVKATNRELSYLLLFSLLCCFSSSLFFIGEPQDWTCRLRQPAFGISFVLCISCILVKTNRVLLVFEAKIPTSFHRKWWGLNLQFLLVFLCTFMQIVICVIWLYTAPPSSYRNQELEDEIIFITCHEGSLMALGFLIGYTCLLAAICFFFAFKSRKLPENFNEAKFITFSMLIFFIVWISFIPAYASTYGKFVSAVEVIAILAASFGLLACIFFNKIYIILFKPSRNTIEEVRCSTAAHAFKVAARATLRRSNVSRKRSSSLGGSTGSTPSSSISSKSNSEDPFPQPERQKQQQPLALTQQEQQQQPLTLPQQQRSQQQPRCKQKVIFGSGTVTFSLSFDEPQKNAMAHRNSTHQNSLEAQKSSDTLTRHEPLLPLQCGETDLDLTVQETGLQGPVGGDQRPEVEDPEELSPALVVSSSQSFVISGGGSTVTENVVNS
As to the kind of experiment: hCaSR transiently expressed in HEK293/natClytin, agonist luminescence assay. In kind it is cell-based. The conditions noted are these: transiently expressed hCaSR; for EC50: > 3 mM = maximal response not reached, read-out: hCaSR EC50. How it is done:
(§1) The coding sequence of the Felis catus[52] and Homo sapiens[53] CaSR gene was synthesised by GeneArt (Thermo Fisher Scientific). The cat coding sequence was excised from the GeneArt construct and inserted in pcDNA3.1 for constitutive and transient expression or pcDNA5/ TO for inducible expression. For the human sequence the pcDNA6 vector as delivered by GeneArt was used without further sub-cloning.
(§2) All transient transfections were performed with Lipofectamine 2000 (Invitrogen) according to the manufacturer’s protocol.

The target of assay [2] is T2, cCaSR (Felis catus, UniProt C7FF08).
T2 sequence (C7FF08 1-1081): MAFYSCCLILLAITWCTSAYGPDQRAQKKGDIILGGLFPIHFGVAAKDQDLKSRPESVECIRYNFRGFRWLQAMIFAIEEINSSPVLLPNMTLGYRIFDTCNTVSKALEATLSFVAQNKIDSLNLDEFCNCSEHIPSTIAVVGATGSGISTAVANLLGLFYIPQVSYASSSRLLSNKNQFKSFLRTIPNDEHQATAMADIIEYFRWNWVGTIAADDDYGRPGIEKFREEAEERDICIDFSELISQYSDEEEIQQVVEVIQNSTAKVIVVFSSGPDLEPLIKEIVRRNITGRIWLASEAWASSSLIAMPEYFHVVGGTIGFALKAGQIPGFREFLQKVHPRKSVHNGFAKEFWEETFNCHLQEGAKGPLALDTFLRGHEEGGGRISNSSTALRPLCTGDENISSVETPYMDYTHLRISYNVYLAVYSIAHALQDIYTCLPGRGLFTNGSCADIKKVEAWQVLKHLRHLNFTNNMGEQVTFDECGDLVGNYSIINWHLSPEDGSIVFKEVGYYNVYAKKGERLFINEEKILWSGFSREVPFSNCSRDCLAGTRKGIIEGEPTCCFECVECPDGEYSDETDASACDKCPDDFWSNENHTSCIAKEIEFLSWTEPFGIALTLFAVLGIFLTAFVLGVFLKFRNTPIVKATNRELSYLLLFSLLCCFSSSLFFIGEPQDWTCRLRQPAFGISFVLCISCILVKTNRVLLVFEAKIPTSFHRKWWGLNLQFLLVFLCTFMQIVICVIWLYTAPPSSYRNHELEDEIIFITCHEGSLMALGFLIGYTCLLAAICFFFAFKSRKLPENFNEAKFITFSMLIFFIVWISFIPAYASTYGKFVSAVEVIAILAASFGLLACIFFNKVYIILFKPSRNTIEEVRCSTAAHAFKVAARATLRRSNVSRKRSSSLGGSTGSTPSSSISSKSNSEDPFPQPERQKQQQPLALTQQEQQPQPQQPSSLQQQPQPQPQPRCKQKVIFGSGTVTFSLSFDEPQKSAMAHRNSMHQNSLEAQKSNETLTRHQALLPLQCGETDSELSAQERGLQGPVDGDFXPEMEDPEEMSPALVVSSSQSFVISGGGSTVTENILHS
The experiment in a line: cCaSR transiently expressed in HEK293/natClytin, agonist luminescence assay. In kind it is cell-based. As to conditions: transiently expressed cCaSR; for EC50: > 3 mM = maximal response not reached, read-out: cCaSR EC50. Here is the method:
as §1, §2

The target of assay [3] is T2, cCaSR. The experiment in a line: cell-based.
Experimental: (§3) The cCaSR expression constructs were stably-transfected in the mammalian cell line, HEK293/ T-REx/ natClytin. Transfections were performed by electroporation, following standard methodologies. Stably-transfected target and mock pools were obtained after 2–3 weeks of antibiotic selection, and clones were selected for testing. In order to evaluate the activity of each clone, 10 mM Calcium was injected onto the cells and the resulting luminescence was measured.
(§4) All compounds screened on the receptor were analysed in parallel with Calcium, on the HEK293/ T-REx/ natClytin-cCaSR or hCaSR stable or transient cell lines. Prior to the measurements, the cells were incubated with 10 µM of photoprotein substrate, Coelenterazine, prepared in Calcium-free Tyrode’s buffer at 37 °C for 3–4 h. All the data was captured using a FLIPR Tetra (Molecular Devices). A single or double injection protocol was used to capture the data for potential agonists and PAMs, respectively. The compounds tested were all prepared at desired concentration in Calcium-Free Tyrode’s buffer supplemented with 0.5% DMSO. For the activity determination of potential agonists, the single injection protocol was used, with CaCl2 as the positive control for each run. Each compound was injected into specific wells and the luminescence signal was measured for 1 min. for each compound. For potential PAMs, the double injection protocol was used. The first injection was identical to the one described above for potential agonists. A 20 min. resting period followed the first injection and a second injection of 0.5 mM CaCl2 in Calcium-free Tyrode’s buffer was injected to all wells, and the resulting luminescence signal was again measured for 1 min for each compound.
(§5) Dose–response curves were established by plotting signal amplitudes versus agonist concentration. For each compound, the % of maximum response was determined using a standard formula as follows:
(§6) The half maximal effective concentrations (EC50) were identified by nonlinear regression using a variable slope model with the equation Y = Bottom + (X^Hillslope)*(Top–Bottom)/ (X^HillSlope + EC50^HillSlope), where Y is the agonist concentration, Top and Bottom are the plateaus in the same units as Y and HillSlope is the Slope factor or Hill slope. […] In these cases the EC50 was noted as being higher than the maximum concentration used in the assay.
Assay [4] has as its target T2, cCaSR. As to the kind of experiment: cCaSR PAM luminescence assay, double injection with 0.5 mM CaCl2, HEK293/T-REx/natClytin-cCaSR. The conditions noted are these: Supplementary Table I, PAM assay, dash = no activity.
The target of assay [5] is T2, cCaSR. As to conditions: for EC50: agonist assay.
Experimental: as §3, §4, §5, §6
Setting [6] is: cCaSR activity, agonist assay, stable inducible cCaSR line, at least three wells.
Where [7] appears, read: cCaSR stable EC50(mM), stably expressed cCaSR, Fig. 6b, > 3 mM = maximal response not reached.

As for [βAsp]-Ala, the EC50 of agonist activity, luminescence (natClytin) in HEK T-Rex/natClytin cells inducibly expressing cCaSR, calcium-free buffer; activity grade + in assay [1] was above 0.01 M.

As to `C[C@H](NC(=O)CC[C@H](N)C(=O)O)C(=O)O` [γ-Glu-Ala], the EC50 at hCaSR was above 3 mM; on cCaSR [2], above 3 mM; at cCaSR [3] (EC50 Value (heat map Fig. 5), cCaSR agonists, heat map) it was 2.95 mM; at cCaSR [3] (setting [6]), above 10 mM; on cCaSR [3] (setting [7]), above 3 mM. In addition, the “EC50 PAM (M)” value on cCaSR [4] is on record as “-”.

With [γGlu]-Glu-Glu, the EC50 of agonist activity, luminescence (natClytin) in HEK T-Rex/natClytin cells inducibly expressing cCaSR, calcium-free buffer; activity grade ++ in assay [1] stood at 2.35 mM.

As for [γGlu]-Cys, the EC50 of agonist activity, luminescence (natClytin) in HEK T-Rex/natClytin cells inducibly expressing cCaSR, calcium-free buffer; activity grade + in assay [1] is above 0.01 M.

Consider [γGlu]-Glu, for which the EC50 of agonist activity, luminescence (natClytin) in HEK T-Rex/natClytin cells inducibly expressing cCaSR, calcium-free buffer; activity grade ++ in assay [1] stood at 2.07 mM.

As to γ-Glu-Abu (peptide), the EC50 of agonist activity, luminescence (natClytin) in HEK T-Rex/natClytin cells inducibly expressing cCaSR, calcium-free buffer; activity grade + in assay [1] was above 0.01 M.

[γGlu]-Met: the EC50 of agonist activity, luminescence (natClytin) in HEK T-Rex/natClytin cells inducibly expressing cCaSR, calcium-free buffer; activity grade + in assay [1] was above 0.01 M.

For Poly-L-arginine, the “hCaSR EC50” value on hCaSR worked out at 2.5 µg/mL. Besides, the “cCaSR EC50” value at cCaSR [2] was 2.9 µg/mL. Further, on cCaSR [5], the “cCaSR stable EC50” value amounted to 8.0 µg/mL. For the same compound, the EC50 on cCaSR [5] (stable inducible cCaSR line, > 0.01 M = maximal response not reached) was 1.01 µM; at cCaSR [5] (read-out: EC50 Ago, Supplementary Table I, > 0.01 M = maximal response not reached), 1.01 µM; on cCaSR [5] (read-out: cCaSR activity, stable inducible cCaSR line, at least three wells), below 1000 µM. Also, the “EC50 PAM (M)” value on cCaSR [4] was “-”.

[γGlu]-Gln: the EC50 of agonist activity, luminescence (natClytin) in HEK T-Rex/natClytin cells inducibly expressing cCaSR, calcium-free buffer; activity grade + in assay [1] was above 0.01 M.

For S-(2-Hydroxyethyl)glutathione (peptide), the EC50 of agonist activity, luminescence (natClytin) in HEK T-Rex/natClytin cells inducibly expressing cCaSR, calcium-free buffer; activity grade ++ in assay [1] was determined as 2.11 mM.

Turning to `CC(C)[C@H](NC(=O)CC[C@H](N)C(=O)O)C(=O)O` [γ-Glu-Val], the EC50 was above 3 mM on hCaSR; above 3 mM at cCaSR [2]; 4.52 mM at cCaSR [3] (EC50 (M), agonist assay, stable inducible cCaSR line, > 0.01 M = maximal response not reached); 4.52 mM at cCaSR [3] (EC50 Ago (M), Supplementary Table I, agonist assay, > 0.01 M = maximal response not reached); 1 to 10 mM on cCaSR [3] (setting [6]); above 3 mM at cCaSR [3] (setting [7]). The “EC50 PAM (M)” value at cCaSR [4] is listed as “-”.

Consider [γGlu]-Tyr, for which the EC50 of agonist activity, luminescence (natClytin) in HEK T-Rex/natClytin cells inducibly expressing cCaSR, calcium-free buffer; activity grade ++ in assay [1] amounted to 3.88 mM.

With [γGlu]-Glu-Gln, the EC50 of agonist activity, luminescence (natClytin) in HEK T-Rex/natClytin cells inducibly expressing cCaSR, calcium-free buffer; activity grade + in assay [1] is above 0.01 M.

For the compound Glutathione (peptide), the EC50 of agonist activity, luminescence (natClytin) in HEK T-Rex/natClytin cells inducibly expressing cCaSR, calcium-free buffer; activity grade ++ in assay [1] was 6.39 mM.

On to `NCCCCN` [Putrescine], for which the EC50 at hCaSR, at cCaSR [2] and at cCaSR [3] (setting [7]) was above 3 mM in each case.

Regarding Poly-L-lysine (peptide), the EC50 of agonist activity, luminescence (natClytin) in HEK T-Rex/natClytin cells inducibly expressing cCaSR, calcium-free buffer; activity grade + in assay [1] was above 0.01 M.

Take [γGlu]-Val-Gly: the EC50 of agonist activity, luminescence (natClytin) in HEK T-Rex/natClytin cells inducibly expressing cCaSR, calcium-free buffer; activity grade ++ in assay [1] was 4.22 mM.
